Entries after “also recorded” stand apart in the source; their conditions may differ.
What was measured:
splenocytes from WT mice = experiment: Iron stimulation of splenocytes, IL-6 secretion by ELISA; assay type: cell-based; details: iron treatment for 4 hours, vs untreated and hepcidin-treated cells, p<0.005; FIG. 10c
Method: Splenocytes were harvested from 10-week-old B6 male mice. After excising the spleen, red blood cells were lysed and the remaining splenocytes were seeded at 1×10^6 cells/mL in 24-well tissue culture plates and cultured under 5% CO2 at 37° C. for 24 hours. The culture medium consisted of RPMI 1640 medium supplemented with 10% fetal calf serum (FCS), 100 U/mL penicillin, 100 μg/mL streptomycin, 1% non-essential amino acids (Gibco/Life Technologies, Foster, Calif., USA), 2 mM L-glutamine (Sigma), and 50/μM 2-mercaptoethanol. After resting for 24 hours, the cells were treated with 10 μM […] (FAC), 1 μg/mL hepcidin or saline for 4 hours. The cell culture supernatants were harvested and quantified for the levels of IL-6 by ELISA (eBioscience).

hepcidin [1] = details: hepcidin inducers; cited from earlier work
hepcidin [2] = details: within 2-5 days after the start of the treatment; cited from earlier work
animals models of AKI = details: cited from earlier work; for renal IRI severity: literature (37-39; 7, 37)
rat model of AI = details: AI induced with PG-APS; cited from earlier work

## ferrous sulfate [reference compound]
Splenocytes from WT mice
  IL-6 secretion into supernatants: significantly increased splenocytes IL-6 secretion

## O=C(CCCCCCC(=O)Nc1ccccc1)NO [vorinostat]
Hepcidin [1]
  active concentration, fold below that required for genistein's effect: 10 fold

## low-molecular-weight heparin
Hepcidin [2]
  decrease of serum hepcidin concentrations: ~80%

## CC(=O)N(O)CCCCCNC(=O)CCC(=O)N(O)CCCCCNC(=O)CCC(=O)N(O)CCCCCN [desferrioxamine]
Animals models of AKI; iron chelation
  protection in animal models of AKI: induces protection in diverse animals models of AKI
Animals models of AKI
  renal IRI severity: attenuate IRI; also recorded: provide protection and significantly improve its severity and outcomes

## superoxide dismutase
Animals models of AKI
  renal IRI severity: attenuate IRI

## CC(C)Oc1ccc2c(=O)c(-c3ccccc3)coc2c1 [ipriflavone]
Hepcidin [1]
  active concentration, fold below that required for genistein's effect: 10 fold

## c1ccc2c(-c3cnn4cc(-c5ccc(N6CCNCC6)cc5)cnc34)ccnc2c1 [LDN-193189]
Rat model of AI
  anemia of inflammation (AI): effectively reversed anemia
